Experimental data from patent publication US20230013364A1, “COMBINATION THERAPIES COMPRISING ANTIBODY MOLECULES TO PD-1” (Novartis AG, priority 2015, published 2023).
“And” between values parts separate entries of the source, which are not always exact repeats. Equal entries are not always repeated. “Also recorded” adds a separate entry of the source. Where two headings read alike, the source gives them in different places.

Columns and labels:
[1] = tested on: PD-L1 (CD274) surface expression in EBC-1 cells; experiment: Flow cytometry of PD-L1 surface expression in EBC-1 cells in vitro; assay type: cell-based, human; conditions: EBC-1 cells (NSCLC with cMET amplification); 10, 100, 1000 nM; 24, 48, 72 hours; vs DMSO; FIG. 15
Protocol: PD-L1 (CD274) expression was analyzed in cancer cell lines treated with Compound A17. Cells were obtained from ATCC and cultured in vitro following ATCC directions. The cell lines used were previously characterized by the Cancer Cell Line Encyclopedia Project (http://www.broadinstitute.org/ccle/home).
Cells plated in six-well culture plates were treated with the Compound A17 at different concentrations (10 nM, 100 nM, and 1000 nM) for 24, 48 and 72 hours. Equal amount of vehicle (DMSO) was used as a control. Cells were washed with PBS and then harvested using a cell scraper.
For each reaction, 0.5-1×10^6 cells were stained with 20 μL of anti-human monoclonal PD-L1— PE antibody, clone M1H1 (BD) for 30-60 minutes at 4° C. Cells were washed twice and data was acquired using a Canto II with FACSDiva software (BD Bioscience). Data analysis was performed using FlowJo software (Tree Star). Mean fluorescence intensity (MFI) was determined by gating on single cells. Unstained cells were used as a gating control.

[2] = tested on: PD-L1 (CD274) mRNA in Hs.746.T tumor; experiment: PD-L1 mRNA in Hs.746.T tumor xenograft; assay type: in vivo, human; conditions: Hs.746.T tumor (gastric cancer, cMET amplification & mutation) xenograft; FIG. 16
Protocol: (§1) TaqMan RT PCR assays were developed to detect changes of expression levels of PD-L1 (CD274) in cell lines and xenograft tumors. mRNA was isolated from frozen cell pellets or tumor fragments using the Qiagen RNeasy Mini kit. Isolated RNA was frozen at −80° C. RNA quality was checked and RNA was quantified using a 2100 Agilent Bioanalyzer following the protocol for the Agilent RNA 6000 Nano Kit. cDNA was prepared using a High Capacity RNA—to cDNA Kit (Applied Biosystems).
(§2) Real-time PCR reactions were carried out in 20 μl total volume, including 10 μl of Universal PCR master mix (Applied Biosystems), 1 μl of human PD-L1 (CD274) probe/primer set (Applied Biosystems), and 8 μl of cDNA. Each sample was run in triplicate. The amount of cDNA produced from 25-50 ng of RNA in the reverse transcription reaction was used in each PCR reaction. Due to difference in mRNA levels between PD-L1 and GAPDH, the two real-time PCR reactions were done in separate tubes using same amount of cDNA. The real-time PCR reaction was run on the C1000 Thermal Cycle (BioRad) with the cycle program as follows: a 10 minute incubation at 95° C. followed by 40 cycles of 95° C. for 15 seconds and 60° C. for 1 minute. After the reaction was complete, the PD-L1 average Ct was normalized relative to each Ct value from the GAPDH reference reaction. Each normalized logarithmic value was then converted into a linear value.

[3] = tested on: PD-L1 (CD274) mRNA in UKE-1 tumors; experiment: PD-L1 mRNA in UKE-1 tumor xenograft model; assay type: in vivo, human; conditions: tumor xenograft model bearing UKE-1 (MPN line with JAK2V617F mutation); FIG. 20
Protocol: as §1, §2

[4] = tested on: PD-L1 (CD274) mRNA in H3122 cells; experiment: TaqMan RT PCR of PD-L1 mRNA in H3122 cells in vitro; assay type: cell-based, human; conditions: H3122 (NSCLC with ALK translocation) in vitro; FIG. 17
Protocol: as §1, §2

[5] = tested on: PD-L1 (CD274) mRNA in LOXIMV1 tumors; experiment: PD-L1 mRNA in LOXIMV1 tumor xenograft model; assay type: in vivo, human; conditions: tumor xenograft model bearing LOXIMV1 (BRAF mutant melanoma); FIG. 18
Protocol: as §1, §2

[6] = tested on: PD-L1 (CD274) mRNA in HEYA8 tumors; experiment: PD-L1 mRNA in HEYA8 tumor xenograft model; assay type: in vivo, human; conditions: tumor xenograft model bearing HEYA8 (KRAF mutant ovarian cancer); FIG. 19
Protocol: as §1, §2

[7] = tested on: interferon gamma (IFN-γ) expression; assay type: cell-based
[8] = tested on: CD8+ T cells; experiment: Proliferation of CD8+ T cells activated with CMV peptides; assay type: cell-based; conditions: percentages of CD8+ cells that passed through at least n cell divisions (n=2, 4, 6)

Molecule: CNC(=O)c1ccc(-c2cnc3ncc(Cc4ccc5ncccc5c4)n3n2)cc1F [Compound A17, 2-fluoro-N-methyl-4-(7-(quinolin-6-ylmethyl)imidazo[1,2-b][1,2,4]triazin-2-yl)benzamide]
- surface expression of PD-L1 (flow cytometry) [1]: Significant inhibition; also recorded: significant downregulation
- PD-L1 expression (mRNA) [2]: Inhibition

Molecule: N#CC[C@H](C1CCCC1)n1cc(-c2ncnc3[nH]ccc23)cn1 [Compound A18, Ruxolitinib Phosphate]
- PD-L1 mRNA [3]: Significant inhibition; also recorded: Downregulation

Molecule: Cc1cc(Nc2ncc(Cl)c(Nc3ccccc3S(=O)(=O)C(C)C)n2)c(OC(C)C)cc1C1CCNCC1 [Compound A23, ceritinib]
- PD-L1 mRNA [4]: Significant inhibition

Molecule: COC(=O)N[C@@H](C)CNc1nccc(-c2cn(C(C)C)nc2-c2cc(Cl)cc(NS(C)(=O)=O)c2F)n1 [Compound A29, Encorafenib]
- PD-L1 mRNA [5]: Significant inhibition; also recorded: Downregulation

Molecule: Cn1cnc2c(F)c(Nc3ccc(Br)cc3F)c(C(=O)NOCCO)cc21 [Compound A34, Binimetinib]
- PD-L1 mRNA [6]: Significant inhibition; also recorded: Downregulation

B1: BAP049: murine anti-PD-1 monoclonal antibody (antibody, V domains shown)
VH: QVQLQQSGSELVRPGASVKLSCKASGYTFTTYWMHWVRQRPGQGLEWIGNIYPGTGGSNFDEKFKNRTSLTVDTSSTTAYMHLASLTSEDSAVYYCTRWTTGTGAYWGQGTLVTVSA
VL: DIVMTQSPSSLTVTAGEKVTMSCKSSQSLLDSGNQKNFLTWYQQKPGQPPKLLIFWASTRESGVPDRFTGSGSVTDFTLTISSVQAEDLAVYYCQNDYSYPCTFGGGTKLEIK
- fold increase in IFN-γ expression [7]: 2.3±1.1 fold and 2.8±0.8 fold
- fold increase in IFN-γ expression ([7]; cells stimulated with Staphylococcal enterotoxin B (SEB) (3 pg/mL)): 2.5±2.0 fold
- proliferation of CD8+ T cells activated with CMV peptides [8]: increase proliferation
